Test results: patent US20240254121A1, “ALKYLAMIDE SUBSTITUTED, ANNULATED IMIDAZOLES AND USE THEREOF AS INSECTICIDES” (Bayer Aktiengesellschaft, priority 2021, published 2024)

Tests used:
Format in all cases: in vivo
[1] = test system: fall armyworm larvae (Spodoptera frugiperda); test: Spodoptera frugiperda spray test; details: 168 h, maize leaf sections, after 7 days
Procedure: Spodoptera frugiperda—Spray Test • Solvent: 78.0 parts by weight acetone • 1.5 parts by weight dimethylformamide • Emulsifier: alkylarylpolyglycol ether
(§1) To produce a suitable preparation of active compound, 1 part by weight of active compound is mixed with the stated amount of solvents and is diluted with water, containing an emulsifier concentration of 1000 ppm, to the desired concentration. Further test concentrations are prepared by dilution with emulsifier containing water.
Maize (Zea mays) leaf sections are sprayed with a preparation of the active ingredient of the desired concentration. Once dry, the leaf sections are infested with fall armyworm larvae (Spodoptera frugiperda).
After 7 days mortality in % is determined. 100% means all caterpillars have been killed and 0% means none of the caterpillars have been killed.

[2] = test system: larvae of the southern green stink bug (Nezara viridula); test: Nezara viridula spray test; details: 96 h, barley plants, after 4 days
Procedure: Nezara viridula—Spray Test • Solvent: 78.0 parts by weight of acetone • 1.5 parts by weight of dimethylformamide • Emulsifier: alkylarylpolyglycol ether
as §1, with “solvent,” for “solvents”, “and the concentrate” for “and”
Barley plants (Hordeum vulgare) are sprayed with a test solution containing the desired concentration of the active ingredient and are infested with larvae of the southern green stink bug (Nezara viridula).
After 4 days mortality in % is determined. 100% means all the stink bugs have been killed; 0% means none of the stink bugs have been killed.

[3] = test system: green peach aphid (Myzus persicae); test: Myzus persicae oral test; details: 120 h, after 5 days
Procedure: Myzus persicae—Oral Test • Solvent: 100 parts by weight acetone
(§2) To produce a suitable preparation of active compound, 1 part by weight of active compound is mixed with the stated amount of solvent, and the concentrate is diluted with water to the desired concentration.
(§3) 50 μL compound solution is filled in microtiter plates and 150 μL IPL41 insect medium (33%+15% sugar) is added to obtain a total volume of 200 μL per well. Afterwards the plates are sealed with parafilm through which a mixed population of the green peach aphid (Myzus persicae) can suck on the compound preparation.
(§4) After 5 days mortality in % is determined. 100% means all aphids have been killed and 0% means none of the aphids have been killed.

[4] = test system: cotton aphid (Aphis gossypii); test: Aphis gossypii oral test; details: 120 h, after 5 days
Procedure: Aphis gossypii—Oral Test • Solvent: 100 Parts by Weight Acetone
as §2
as §3, with “cotton” for “green peach”, “(Aphis gossypii)” for “(Myzus persicae)”
as §4

[5] = test system: adult mosquitoes Aedes aegypti strain MONHEIM; test: Aedes aegypti test (AEDSAE surface treatment & contact assay); details: 24 hours after contact, read-out: efficacy (mortality); for mortality at 20 mg/m2: surface concentration 20 mg/m^2, 30 minutes exposure; for mortality at 4 mg/m2: surface concentration 4 mg/m^2, 30 minutes exposure
Procedure: Aedes aegypti Test (AEDSAE Surface Treatment & Contact Assay) • Solvent: Aceton+2000 ppm rapeseed oil methyl ester (RME)
(§5) In order to produce a sufficient, active ingredient containing solution it is necessary to solve the test compound in the solvent-mix (acetone at 2 mg/ml/RME 2000 ppm). This solution is pipetted onto a glazed tile and after evaporation of the acetone, adult mosquitoes of the species Aedes aegypti strain MONHEIM are placed onto the dried surface. The exposure time is 30 minutes. Mortality in percent (%) is determined 24 hours after contact of the insects to the treated surface. 100% mortality means that all tested insects are dead, whereas 0% means that no insect died.

[6] = test system: cattle tick larvae (Rhipicephalus microplus); test: Rhipicephalus (Boophilus) microplus in-vitro contact test, larval cattle tick (strain Parkhurst, resistant against synthetic pyrethroids); details: 1 μg/cm^2 (=100 g/ha), after 48 hours, read-out: efficacy (larvae dead or moribund)
Procedure: Rhipicephalus (Boophilus) Microplus—In-Vitro Contact Tests Larval Cattle Tick (Strain Parkhurst, Resistant Against Synthetic Pyrethroids)
9 mg compound is solved in 1 mL acetone and diluted with acetone to the desired concentration. 250 μL of the test solution is filled in 25 mL glass test tubes and homogeneously distributed on the inner walls by rotation and tilting on a shaking device (2 h at 30 rpm). With a compound concentration of 900 ppm, an inner surface of 44.7 cm^2 and a homogeneous distribution, a dose of 5 μg/cm^2 is achieved.
After the solvent has evaporated, each test tube is filled with 20-50 cattle tick larvae (Rhipicephalus microplus), closed with a perforated lid and incubated in a horizontal position at 85% relative humidity and 27° C. in an incubator. After 48 hours efficacy is determined. The larvae are patted on the ground of the tubes and negative geotactic behavior is recorded.
An efficacy of 100% means all larvae are dead or moribund; 0% means no larvae are dead or moribund.

[7] = test system: adult mosquitoes Culex quinquefasciatus strain P00; test: Culex quinquefasciatus test (CULXFA surface treatment & contact assay); details: 24 hours after contact, read-out: efficacy (mortality); for mortality at 4 mg/m2: surface concentration 4 mg/m^2, 30 minutes exposure
Procedure: Culex quinquefasciatus Test (CULXFA Surface Treatment & Contact Assay) • Solvent: Aceton+2000 ppm rapeseed oil methyl ester (RME)
as §5, with “2,000” for “2000”, “Culex quinquefasciatus” for “Aedes aegypti”, “P00” for “MONHEIM”

[8] = test system: larvae of the banded cucumber beetle (Diabrotica balteata); test: Diabrotica balteata spray test; details: 168 h, 100 g/ha (=32 μg/well), wheat seeds, after 7 days, read-out: efficacy (seedling growth)
Procedure: Diabrotica Balteata—Spray Test
• Solvent: 78.0 Parts by Weight of Acetone • 1.5 parts by weight of dimethylformamide • Emulsifier: Alkylarylpolyglycol Ether
as §1, with “solvent,” for “solvents”, “and the concentrate” for “and”
Soaked wheat seeds (Triticum aestivum) are placed in a multiple well plate filled with agar and some water and are incubated for 1 day to germinate (5 seeds per well). The germinated wheat seeds are sprayed with a test solution containing the desired concentration of the active ingredient. Afterwards each unit is infected with 10-20 larvae of the banded cucumber beetle (Diabrotica balteata).
After 7 days efficacy in % is determined. 100% means all the seedlings have grown up like in the untreated, uninfected control; 0% means none of the seedlings have grown.

[9] = test system: adult flies Musca domestica strain WHO-N; test: Musca domestica test (MUSCDO surface treatment & contact assay); details: 24 hours after contact, read-out: efficacy (mortality); for mortality at 4 mg/m2: surface concentration 4 mg/m^2, 30 minutes exposure; for mortality at 20 mg/m2: surface concentration 20 mg/m^2, 30 minutes exposure
Procedure: Musca domestica Test (MUSCDO Surface Treatment & Contact Assay) • Solvent: Aceton+2000 ppm rapeseed oil methyl ester (RME)
as §5, with “flies” for “mosquitoes”, “Musca domestica” for “Aedes aegypti”, “WHO-N” for “MONHEIM”

C[C@H](NC(=O)c1cc(Cl)cc(S(C)(=O)=O)c1)c1nc2cccnc2n1-c1ccc(C#N)cn1 [Example I-5]
mortality at 100 g/ha [1]: 100%
mortality at 500 g/ha [2]: 100%
mortality at 20 ppm [3]: 100%
mortality at 100 ppm [4]: 100%

C[C@H](NC(=O)c1cc(C#N)cc(C(C)(C)C#N)c1)c1nc2cccnc2n1-c1ccc(C#N)cn1 [Example I-7]
mortality at 20 mg/m2 [5]: 80 to 100%
mortality at 100 g/ha [1]: 100%
mortality at 20 ppm [3]: 100%
pest or weed control at 1 µg/cm2, 100 g/ha [6]: 90%
mortality at 100 ppm [4]: 100%

CC(NC(=O)c1cc(Cl)cc(S(C)(=O)=O)c1)c1nc2cccnc2n1-c1ccc(Cl)cn1 (centres unmarked) [Example I-10]
mortality at 4 mg/m2 [5]: 80 to 100%
mortality at 20 mg/m2 [5]: 80 to 100%
mortality at 100 g/ha [1]: 100%
mortality at 500 g/ha [2]: 100%
mortality at 20 ppm [3]: 100%
mortality at 100 ppm [4]: 100%
mortality at 4 mg/m2 [7]: 80 to 100%

CC(NC(=O)c1cc(OC(F)(F)F)cc(C2(C#N)CC2)c1)c1nc2cccnc2n1-c1ccc(Cl)cn1 (centres unmarked) [Example I-11]
mortality at 20 mg/m2 [5]: 80 to 100%
mortality at 100 g/ha [1]: 100%
pest or weed control at 32 µg/disc, 100 g/ha [8]: 100%
mortality at 4 mg/m2 [9]: 80 to 100%
mortality at 20 mg/m2 [9]: 80 to 100%
pest or weed control at 1 µg/cm2, 100 g/ha [6]: 90%

CC(NC(=O)c1cc(OC(F)(F)F)cc(S(C)(=O)=O)c1)c1nc2cccnc2n1-c1ccc(Cl)cn1 (centres unmarked) [Example I-12]
mortality at 100 g/ha [1]: 100%
pest or weed control at 32 µg/disc, 100 g/ha [8]: 100%
mortality at 500 g/ha [2]: 100%

CC(NC(=O)c1cc(OC(F)(F)F)cc(C(C)(C)C#N)c1)c1nc2cccnc2n1-c1ccc(Cl)cn1 (centres unmarked) [Example I-14]
mortality at 20 mg/m2 [5]: 80 to 100%
mortality at 100 g/ha [1]: 83%
mortality at 20 mg/m2 [9]: 80 to 100%
pest or weed control at 1 µg/cm2, 100 g/ha [6]: 100%

C[C@H](NC(=O)c1cc(OC(F)(F)F)cc(OC(F)(F)F)c1)c1nc2cccnc2n1-c1ccc(C#N)cn1 [Example I-16]
mortality at 4 mg/m2 [5]: 80 to 100%
mortality at 20 mg/m2 [5]: 80 to 100%
mortality at 100 g/ha [1]: 100%
pest or weed control at 32 µg/disc, 100 g/ha [8]: 100%
mortality at 4 mg/m2 [9]: 80 to 100%
mortality at 20 mg/m2 [9]: 80 to 100%
pest or weed control at 1 µg/cm2, 100 g/ha [6]: 100%

Cc1ccc2nc(C(C)NC(=O)c3cc(Cl)cc(OC(F)(F)F)c3)n(-c3ccc(C#N)cn3)c2n1 (centres unmarked) [Example I-20]
mortality at 100 g/ha [1]: 100%

Cc1ccc2nc(C(C)NC(=O)c3cc(OC(F)(F)F)cc(S(C)(=O)=O)c3)n(-c3ccc(C#N)cn3)c2n1 (centres unmarked) [Example I-23]
mortality at 100 g/ha [1]: 100%

COC(=O)c1ccc(-n2c(C(C)NC(=O)c3cc(OC(F)(F)F)cc(S(C)(=O)=O)c3)nc3cccnc32)nc1 (centres unmarked) [Example I-24]
mortality at 4 mg/m2 [5]: 80 to 100%
mortality at 20 mg/m2 [5]: 80 to 100%
mortality at 20 ppm [3]: 100%
mortality at 100 ppm [4]: 100%
mortality at 4 mg/m2 [7]: 80 to 100%
mortality at 20 mg/m2 ([7]; surface concentration 20 mg/m^2, 30 minutes exposure): 80 to 100%

CNC(=O)c1ccc(-n2c(C(C)NC(=O)c3cc(OC(F)(F)F)cc(S(C)(=O)=O)c3)nc3cccnc32)nc1 (centres unmarked) [Example I-28]
mortality at 500 g/ha [2]: 100%

CC(NC(=O)c1cc(OC(F)(F)F)cc(S(C)(=O)=O)c1)c1nc2cccnc2n1-c1ccc(C(=O)N(C)C)cn1 (centres unmarked) [Example I-29]
mortality at 500 g/ha [2]: 90%

CC(NC(=O)c1cc(C(F)(F)F)cc(C(F)(F)F)c1)c1nc2cccnc2n1-c1ccc(C(N)=O)cn1 (centres unmarked) [Example I-30]
mortality at 500 g/ha [2]: 100%

C[C@H](NC(=O)c1cc(C(F)(F)F)cc(C(F)(F)F)c1)c1nc2ncccc2n1-c1ccc(C#N)cn1 [Example I-32]
mortality at 100 g/ha [1]: 100%

CC(NC(=O)c1cc(OC(F)(F)F)cc(C2CC2)c1)c1nc2ncccc2n1-c1ccc(Cl)cn1 (centres unmarked) [Example I-33, N-[1-[I-(5-chloro-2-pyridyl)imidazo[4,5-b]pyridin-2-yl]ethyl]-3-cyclopropyl-5-(trifluoromethoxy) benzamide]
mortality at 100 g/ha [1]: 100%
mortality at 4 mg/m2 [7]: 80 to 100%

CC(NC(=O)c1cc(Cl)cc(OC(F)(F)F)c1)c1nc2cc(F)cnc2n1-c1ccc(C#N)cn1 (centres unmarked) [Example I-34]
mortality at 100 g/ha [1]: 100%
pest or weed control at 32 µg/disc, 100 g/ha [8]: 100%

CC(NC(=O)c1cc(OC(F)(F)F)cc(S(=O)(=O)C(F)F)c1)c1nc2cccnc2n1-c1ccc(C#N)cn1 (centres unmarked) [Example I-36]
mortality at 100 g/ha [1]: 100%
pest or weed control at 32 µg/disc, 100 g/ha [8]: 100%

CC(NC(=O)c1cc(OC(F)(F)F)cc(C(C)(F)F)c1)c1nc2cccnc2n1-c1ccc(C#N)cn1 (centres unmarked) [Example I-37]
mortality at 100 g/ha [1]: 100%
pest or weed control at 32 µg/disc, 100 g/ha [8]: 100%

CC(NC(=O)c1cc(C(F)(F)F)cc(C(F)(F)F)c1)c1nc2cnccc2n1-c1ccc(Cl)cn1 (centres unmarked) [Example I-39, N-[1-[1-(5-chloro-2-pyridyl)imidazo[4,5-c]pyridin-2-yl]ethyl]-3,5-bis(trifluoromethyl)benzamide]
pest or weed control at 32 µg/disc, 100 g/ha [8]: 100%
mortality at 500 g/ha [2]: 100%

CC(NC(=O)c1cc(Br)cc(OC(F)(F)F)c1)c1nc2cccnc2n1-c1ccc(C#N)cn1 (centres unmarked) [Example I-41]
mortality at 100 g/ha [1]: 100%
pest or weed control at 32 µg/disc, 100 g/ha [8]: 100%

CC(NC(=O)c1cc(C#N)cc(OC(F)(F)F)c1)c1nc2cccnc2n1-c1ccc(C#N)cn1 (centres unmarked) [Example I-42]
mortality at 100 g/ha [1]: 100%

CC(NC(=O)c1cc(C(F)F)cc(C(F)F)c1)c1nc2cccnc2n1-c1ccc(C#N)cn1 (centres unmarked) [Example I-44]
mortality at 100 g/ha [1]: 83%
